Measured values published in US20180110824A1, “Macrocyclic Modulators of the Ghrelin Receptor” (Ocera Therapeutics, Inc., priority 2016, published 2018).

Target: T1, human growth hormone secretagogue receptor (hGHS-R1a) (Homo sapiens, UniProt Q92847)
T1 construct: purchased PerkinElmer BioSignal #RBHGHSM; host or cells: HEK-293, stably transfected
Assay: Competitive radioligand binding assay (ghrelin receptor), [125I]-ghrelin displacement on GHS-R/HEK 293 membranes;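 on Binding Activity at the Human Ghrelin Receptor (Ki): symbols B 10-100 nM C 0.1-1 µM D 1-10 µM F above 1 µM G above 10 µM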
Conditions: Binding activity at the human ghrelin receptor, [125I]-ghrelin displacement; read-out: Ki
Method: The competitive binding assay at the human growth hormone secretagogue receptor (hGHS-R1a) was carried out analogously to assays described in the literature.
Multiscreen Harvest plates-GF/C (Millipore, #MAHFC1H60) • 4. […] Bottom seal (Millipore, #MATAH0P00) • 7. […] Binding Buffer: 25 mM Hepes (pH 7.4), 1 mM CaCl2, 5 mM MgCl2, 2.5 mM EDTA, 0.4% BSA
Competition experiments were performed in a 300 μl filtration assay format. • 1. 220 μL of membranes diluted in binding buffer • 2. 40 μL of compound diluted in binding buffer • 3.
Compounds were provided frozen on dry ice at a stock concentration of 10 mM diluted in 100% DMSO and stored at −80° C. until the day of testing. On the test day, compounds were allowed to thaw at rt O/N and then diluted in assay buffer according to the desired test concentrations. Under these conditions, the maximal final DMSO concentration in the assay was 0.1%.
Plates were sealed with TopSeal-A, vortexed gently and incubated at rt for 30 min. The reaction was arrested by filtering samples through Multiscreen Harvest plates (pre-soaked in 0.5% polyethyleneimine) using a Tomtec Harvester, washed 9 times with 500 μL of cold 50 mM Tris-HCl (pH 7.4, 4° C.), and then plates were air-dried in a fumehood 30 min. A bottom seal was applied to the plates prior to the addition of 25 μL of MicroScint-0 to each well. […] Results were expressed as counts per minute (cpm).
Data were analyzed by GraphPad Prism (GraphPad Software, San Diego, Calif.) using […] non-linear regression analysis.
where total and non-specific binding represent the cpm obtained in the absence or presence of 1 μM ghrelin, respectively.
• 1. Binding performed on membranes prepared from HEK293 expressing the transfected, cloned human ghrelin receptor (hGHS-R1a). • 2. […] Ghrelin (unlabeled, 1 μM) was used to determine non-specific binding. • 4.

T1 sequence (Q92847 whole entry): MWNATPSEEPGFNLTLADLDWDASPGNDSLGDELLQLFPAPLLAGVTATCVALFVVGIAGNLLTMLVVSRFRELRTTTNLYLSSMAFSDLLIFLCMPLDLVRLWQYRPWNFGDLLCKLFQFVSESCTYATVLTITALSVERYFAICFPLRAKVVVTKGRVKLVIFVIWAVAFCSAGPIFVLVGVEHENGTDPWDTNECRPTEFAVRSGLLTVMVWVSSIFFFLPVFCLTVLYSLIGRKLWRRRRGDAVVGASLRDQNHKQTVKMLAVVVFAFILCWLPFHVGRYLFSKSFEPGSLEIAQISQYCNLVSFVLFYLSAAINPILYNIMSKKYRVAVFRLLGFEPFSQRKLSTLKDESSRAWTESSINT

SMILES	Ki [nM]
O=C1NC2(CCCC2)C(=O)N[C@@H](Cc2ccccc2)C(=O)NC/C=C/c2ccccc2OCCN[C@H]1Cc1ccc(F)cc1 [compound 125]	> 10000
COc1ccc(C[C@@H]2NCCOc3ccccc3/C=C/CNC(=O)[C@H](Cc3ccccc3)NC(=O)C3(CCCC3)NC2=O)cc1 [compound 127]	100 to 1000
O=C1NC/C=C/c2ccccc2OCCN[C@@H](C(c2ccccc2)c2ccccc2)C(=O)NC2(CCCC2)C(=O)N[C@H]1Cc1ccccc1 [compound 129]	> 10000
O=C1NC2(CCCC2)C(=O)N[C@@H](Cc2ccccc2)C(=O)NC/C=C/c2ccccc2OCCN[C@H]1Cc1cccc2ccccc12 [compound 130]	1000 to 10000
O=C1NC2(CCCC2)C(=O)N[C@@H](Cc2ccccc2)C(=O)NC/C=C/c2ccccc2OCCN[C@H]1Cc1ccc2ccccc2c1 [compound 131]	100 to 1000
O=C1NC2(CCCC2)C(=O)N[C@@H](Cc2ccccc2)C(=O)NC/C=C/c2ccccc2OCCN[C@H]1Cc1cscn1 [compound 134]	100 to 1000
O=C1NC2(CCCC2)C(=O)N[C@@H](Cc2ccccc2)C(=O)NC/C=C/c2ccccc2OCCN[C@H]1Cc1cccs1 [compound 135]	100 to 1000
CC(C)C1NCCOc2ccccc2/C=C/CNC(=O)C(Cc2ccccc2)NC(=O)C2(Cc3ccccc3C2)NC1=O (stereo not shown) [compound 142]	100 to 1000
CC(C)C1NCCOc2ccccc2/C=C/CNC(=O)C(Cc2ccccc2)NC(=O)C2(CCSCC2)NC1=O (stereo not shown) [compound 143]	100 to 1000

The next lines start with the values.

Ki [nM]	SMILES
10 to 100	CC[C@@H]1NCCOc2ccccc2CCCNC(=O)[C@@H](Cc2ccccc2)NC(=O)[C@@H](C)N(C)C1=O [compound 117]
10 to 100	CC(C)C[C@@H]1NCCOc2ccccc2CCCNC(=O)[C@@H](Cc2ccccc2)NC(=O)[C@@H](C)N(C)C1=O [compound 118]
> 10000	C[C@@H]1C(=O)N[C@H](Cc2ccccc2)C(=O)NCCCc2ccccc2OCCNC2(CC2)C(=O)N1C [compound 121]
10 to 100	CCC[C@@H]1NCCOc2ccccc2/C=C/CNC(=O)[C@H](Cc2ccccc2)NC(=O)C2(CCCC2)NC1=O [compound 137]
100 to 1000	CC[C@H](C)[C@@H]1NCCOc2ccccc2CCCNC(=O)[C@@H](Cc2ccccc2)NC(=O)[C@@H](C(C)C)N(C)C1=O [compound 144]
1000 to 10000	CC[C@@H](C)[C@@H]1C(=O)N[C@H](Cc2ccccc2)C(=O)NCCCc2ccccc2OCCN[C@@H]([C@@H](C)CC)C(=O)N1C [compound 149]

Same assay, conditions: Table 3B; binding activity at the human ghrelin receptor; read-out: Ki

SMILES	Ki [nM]
O=C1NC2(CCCC2)C(=O)N[C@@H](Cc2cccc(Cl)c2)C(=O)NC/C=C/c2ccccc2OCCN[C@H]1Cc1ccc(O)cc1 [compound 301]	10 to 100
C[C@@H]1C(=O)N[C@H](Cc2ccc(F)cc2)C(=O)NCCC=CCOCCN[C@@H](C2CC2)C(=O)N1C [compound 307]	100 to 1000
CC[C@H](C)[C@@H]1NCCOc2ccccc2/C=C/CNC(=O)[C@H](Cc2cccc(Br)c2)NC(=O)C2(CCCC2)NC1=O [compound 326]	10 to 100
CC[C@H](C)[C@@H]1NCCOc2ccccc2/C=C/CNC(=O)[C@H](Cc2cccc(C#N)c2)NC(=O)C2(CCCC2)NC1=O [compound 329]	10 to 100
CCC(C)C1NCCOc2ccccc2C=CCNC(=O)C(Cc2ccsc2)NC(=O)C2(CCCC2)NC1=O (stereo not shown) [compound 333]	100 to 1000

Now from value to compound:

Ki [nM]	SMILES
0.1 to 10	C[C@@H]1C(=O)N[C@H](Cc2ccc(F)cc2)C(=O)NCCCc2ccccc2OCCN[C@@H](C2CC2)C(=O)N1C [compound 309]
10 to 100	C[C@@H]1C(=O)N[C@H](Cc2ccsc2)C(=O)NCCCc2ccccc2OCCN[C@@H](C2CC2)C(=O)N1C [compound 310]
0.1 to 10	C[C@@H]1C(=O)N[C@H](Cc2ccccc2F)C(=O)NCCCc2ccccc2OCCN[C@@H](C2CC2)C(=O)N1C [compound 312]
10 to 100	C[C@@H]1C(=O)N[C@H](Cc2cccc(F)c2)C(=O)NCCCc2ccccc2OCCN[C@@H](C2CC2)C(=O)N1C [compound 313]
0.1 to 10	C[C@@H]1C(=O)N[C@H](Cc2ccc(Cl)c(Cl)c2)C(=O)NCCCc2ccccc2OCCN[C@@H](C2CC2)C(=O)N1C [compound 315]
10 to 100	C[C@@H]1C(=O)N[C@H](Cc2ccc(F)c(F)c2)C(=O)NCCCc2ccccc2OCCN[C@@H](C2CC2)C(=O)N1C [compound 316]
10 to 100	C[C@@H]1C(=O)N[C@H](Cc2cc(F)cc(F)c2)C(=O)NCCCc2ccccc2OCCN[C@@H](C2CC2)C(=O)N1C [compound 317]
0.1 to 10	C[C@@H]1C(=O)N[C@H](Cc2ccc(Br)cc2)C(=O)NCCCc2ccccc2OCCN[C@@H](C2CC2)C(=O)N1C [compound 319]
0.1 to 10	C[C@@H]1C(=O)N[C@H](Cc2ccc(I)cc2)C(=O)NCCCc2ccccc2OCCN[C@@H](C2CC2)C(=O)N1C [compound 320]
10 to 100	C[C@@H]1C(=O)N[C@H](Cc2ccc(C#N)cc2)C(=O)NCCCc2ccccc2OCCN[C@@H](C2CC2)C(=O)N1C [compound 321]
100 to 1000	COc1ccc(C[C@H]2NC(=O)[C@@H](C)N(C)C(=O)[C@H](C3CC3)NCCOc3ccccc3CCCNC2=O)cc1OC [compound 323]
10 to 100	CO[C@H](C)[C@@H]1NCCOc2ccccc2CCCNC(=O)[C@@H](Cc2ccc(F)cc2)NC(=O)[C@@H](C)N(C)C1=O [compound 335]
100 to 1000	COC[C@@H]1NCCOc2ccccc2CCCNC(=O)[C@@H](Cc2ccc(F)cc2)NC(=O)[C@@H](C)N(C)C1=O [compound 336]
100 to 1000	C[C@@H]1C(=O)N[C@H](Cc2ccc(F)cc2)C(=O)NCCCc2ccccc2OCCN[C@@H](CN)C(=O)N1C [compound 337]

Same assay, conditions: Table 3E; read-out: Ki

Ki [nM]	SMILES
1000 to 10000	CCC[C@@H]1NCCOc2ccccc2CCCNC(=O)[C@@H](Cc2ccccc2)NC(=O)[C@@H]2CCCN2C1=O [compound 220]
1000 to 10000	CC(C)C[C@@H]1NCCOc2ccccc2CCCNC(=O)[C@H](Cc2ccccc2)NC(=O)[C@@H]2CCCN2C1=O [compound 222]
1000 to 10000	CC(C)C[C@@H]1NCCOc2ccccc2CCCNC(=O)[C@H](Cc2ccccc2)NC(=O)[C@H]2CCCN2C1=O [compound 223]
100 to 1000	C[C@@H]1C(=O)N[C@H](Cc2ccccc2)C(=O)NCCCc2ccccc2OCCN2CCC[C@H]2C(=O)N1C [compound 225]

Same assay, conditions: [125I]-ghrelin displacement, GHS-R/HEK 293 membranes; class symbols; read-out: Binding Activity at the Human Ghrelin Receptor (Ki)

SMILES	Ki [nM]
CC(C)C[C@@H]1NCCOc2ccccc2/C=C/CNC(=O)[C@H](C(c2ccccc2)c2ccccc2)NC(=O)C2(CCCC2)NC1=O [compound 158]	> 1000
CC(C)C[C@@H]1NCCOc2ccccc2/C=C/CNC(=O)[C@H](Cc2cscn2)NC(=O)C2(CCCC2)NC1=O [compound 163]	> 10000
CC[C@H](C)[C@@H]1NCCOCC=CCNC(=O)[C@@H](Cc2ccccc2)NC(=O)[C@@H](C)N(C)C1=O [compound 185]	100 to 1000
CC[C@H](C)[C@@H]1NCCc2ccccc2C=CCNC(=O)[C@@H](Cc2ccccc2)NC(=O)[C@@H](C)N(C)C1=O [compound 187]	100 to 1000
CC(C)[C@@H]1NCCOc2ccccc2/C=C/CNC(=O)[C@H](Cc2ccccc2)NC(=O)C2(CCCC2)NC1=O [compound 200]	10 to 100
CC(=O)N1CCOc2ccccc2/C=C/CNC(=O)[C@H](Cc2ccccc2)NC(=O)C2(CCCC2)NC(=O)[C@@H]1CC(C)C [compound 204]	> 10000
O=C1NC2(CCCC2)C(=O)N[C@@H](Cc2ccccc2)C(=O)NC/C=C/c2ccccc2OCCN[C@H]1Cc1ccccn1 [compound 210]	> 1000
CC(C)[C@@H]1NCCOc2ccccc2/C=C/CNC(=O)[C@H](Cc2ccccc2)NC(=O)C2(CCNCC2)NC1=O [compound 211]	> 1000
O=C1NC/C=C/c2ccccc2OCCNC2(CCCCC2)C(=O)NC2(CCCC2)C(=O)N[C@H]1Cc1ccccc1 [compound 218]	10 to 100
O=C1NC2(CCCC2)C(=O)N[C@@H](Cc2ccccc2)C(=O)NC/C=C/c2ccccc2OCCN[C@H]1Cc1cnc[nH]1 [compound 219]	100 to 1000

The remaining lines, values ahead:

Ki [nM]	SMILES
100 to 1000	CC[C@H](C)[C@@H]1NCCCc2ccccc2CCNC(=O)[C@@H](Cc2ccccc2)NC(=O)[C@@H](C)N(C)C1=O [compound 179]
100 to 1000	CC[C@H](C)[C@@H]1NCCCCc2ccccc2CCNC(=O)[C@@H](Cc2ccccc2)NC(=O)[C@@H](C)N(C)C1=O [compound 180]
> 10000	CCC[C@H]1C(=O)N(C)[C@H](C)C(=O)N[C@H](Cc2ccccc2)C(=O)NCCCc2ccccc2OCCN1C(C)=O [compound 202]
> 10000	CC(C)C1NCCOc2ccccc2CCCNC(=O)C(Cc2ccccc2)NC(=O)C2(CCNCC2)NC1=O (stereo not shown) [compound 207]
1000 to 10000	CCC(C)C1NCCOc2ccccc2CCCNC(=O)C(Cc2ccccc2)NC(=O)C(COC(C)(C)C)NC1=O (stereo not shown) [compound 215]
1000 to 10000	CC(C)[C@@H]1NCCOc2ccccc2CCCNC(=O)[C@H](Cc2ccccc2)NC(=O)C2(CC2)NC1=O [compound 216]
1000 to 10000	CCC[C@@H]1NCCOc2ccccc2CCCNC(=O)[C@@H](Cc2ccccc2)NC(=O)[C@@H]2CCCN2C1=O [compound 220]
1000 to 10000	CC(C)C[C@@H]1NCCOc2ccccc2CCCNC(=O)[C@H](Cc2ccccc2)NC(=O)[C@@H]2CCCN2C1=O [compound 222]
1000 to 10000	CC(C)C[C@@H]1NCCOc2ccccc2CCCNC(=O)[C@H](Cc2ccccc2)NC(=O)[C@H]2CCCN2C1=O [compound 223]
100 to 1000	C[C@@H]1C(=O)N[C@H](Cc2ccccc2)C(=O)NCCCc2ccccc2OCCN2CCC[C@H]2C(=O)N1C [compound 225]
